According to patent US8633231B2, “Substituted imidazolones, compositions containing such compounds and methods of use” (Merck Sharp & Dohme Corp., priority 2010, dated 2014):
pIC50: −log10 of the molar value.

Biological target: Recombinant human glucagon receptor-expressing CHO cells (Homo sapiens (Human), UniProt P47871)
Test: Inhibition of Glucagon-Stimulated Intracellular cAMP Assay
Type: cell-based
Conditions: stimulation with 300 pM glucagon; LANCE cAMP Kit
Description: Inhibition of Glucagon-Stimulated Intracellular cAMP Assay
Recombinant human glucagon receptor-expressing CHO cells were harvested using a non-enzymatic cell dissociation solution (GIBCO 2672), pelleted and resuspended in stimulation buffer (1×HBSS, 5 mM Hepes, 0.1% BSA, pH7.4 in the presence of proteinase inhibitor and phosphodiesterase inhibitors). The adenylate cyclase assay was constructed following the LANCE cAMP Kit (Perkin Elmer, AD0264) instructions. Briefly, cells were preincubated with anti-cAMP antibody and 12 points series diluted compound in stimulation buffer with a final concentration of 3% DMSO for 30 minutes prior to stimulation with 300 pM glucagon for 45 minutes. The reaction was stopped by incubating with the supplied detection buffer containing Europium chelate of the Eu-SA/Biotin-cAMP tracer for 20 hours. The assay was done as triplicates in a 384 well plate. Fluorescence at 665 nm was measured using PheraStar instruments. Basal activity (100% inhibition) was determined using the DMSO control and 0% inhibition was defined as cAMP stimulation produced by 300 pM glucagon. Standard cAMP concentrations were assayed concurrently for conversion of fluorescence signal to cAMP level. Data was analyzed using the software program Prism from GraphPad. IC50 values were calculated using non-linear regression analysis assuming single site competition.

Sequence of Recombinant human glucagon receptor-expressing CHO cells (P47871 26-477): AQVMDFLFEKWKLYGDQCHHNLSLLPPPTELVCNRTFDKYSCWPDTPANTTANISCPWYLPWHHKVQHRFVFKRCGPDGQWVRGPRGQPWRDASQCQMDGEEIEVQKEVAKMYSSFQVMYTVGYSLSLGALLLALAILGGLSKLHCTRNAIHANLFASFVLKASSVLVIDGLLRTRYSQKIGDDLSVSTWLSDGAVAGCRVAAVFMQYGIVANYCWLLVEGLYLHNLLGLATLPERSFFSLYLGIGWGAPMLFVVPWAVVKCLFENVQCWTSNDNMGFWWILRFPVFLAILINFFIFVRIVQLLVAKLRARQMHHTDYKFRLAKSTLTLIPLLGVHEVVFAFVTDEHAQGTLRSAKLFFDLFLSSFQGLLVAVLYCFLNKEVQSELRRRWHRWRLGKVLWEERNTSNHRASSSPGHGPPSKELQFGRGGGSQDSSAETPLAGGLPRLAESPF

| pIC50 | SMILES |
| --- | --- |
| 5.08 | CC(C)(C)CC[C@H](c1ccc(C(=O)NCc2nn[nH]n2)cc1)N1C(=O)C(c2cccc(F)c2)=NC1(C)C [Example 10] |
| 5.77 | CC1(C2CCCCC2)N=C(c2cc(Cl)cc(Cl)c2)C(=O)N1CCc1ccc(C(=O)NCCC(=O)O)cc1 (centres unmarked) [Example 11] |
| 5.77 | CC1(C)N=C(c2cc(Cl)cc(Cl)c2)C(=O)N1CCc1ccc(C(=O)NCCC(=O)O)cc1 [Example 12] |
| 5.38 | CC(C)CC1(C)N=C(c2cc(Cl)cc(Cl)c2)C(=O)N1CCc1ccc(C(=O)NCCC(=O)O)cc1 (centres unmarked) [Example 13] |
| 5.29 | CC1(C2CCCCC2)N=C(c2ccc(OC(F)(F)F)cc2)C(=O)N1CCc1ccc(C(=O)NCCC(=O)O)cc1 (centres unmarked) [Example 14] |
| 5.46 | CC1(C2CCCCC2)NC(c2cccc(C(F)(F)F)c2)C(=O)N1CCc1ccc(C(=O)NCCC(=O)O)cc1 (centres unmarked) [Example 15] |
| 5.08 | CC1(C)N=C(c2ccc(OC(F)(F)F)cc2)C(=O)N1CCc1ccc(C(=O)NCCC(=O)O)cc1 [Example 16] |
| 5.77 | CC1(C)N=C(c2cc(Cl)cc(Cl)c2)C(=O)N1[C@@H](c1ccc(C(=O)NCCC(=O)O)cc1)C1CC1 [Example 17] |
| 6.00 | CCCC[C@H](c1ccc(C(=O)NCCC(=O)O)cc1)N1C(=O)C(c2ccc(-c3cc(Cl)cc(Cl)c3)cc2)=NC1(C)C [Example 18] |
| 5.89 | CC(C)[C@H](c1ccc(C(=O)NCCC(=O)O)cc1)N1C(=O)C(c2cc(Cl)cc(Cl)c2)=NC1(C)C [Example 19] |
| 5.70 | CCCC[C@H](c1ccc(C(=O)NCCC(=O)O)cc1)N1C(=O)C(c2cc(Cl)cc(Cl)c2)=NC1(C)C [Example 20] |

The remaining lines, values behind:

| SMILES | pIC50 |
| --- | --- |
| CC(C)(C)CC[C@H](c1ccc(C(=O)NCCC(=O)O)cc1)N1C(=O)C(c2cc(Cl)cc(Cl)c2)=NC1(C)C [Example 1] | 6.10 |
| CC(C)(C)CC[C@H](c1ccc(C(=O)NCc2nn[nH]n2)cc1)N1C(=O)C(c2cc(Cl)cc(Cl)c2)=NC1(C)C [Example 2] | 5.43 |
| CC(C)(C)CC[C@H](c1ccc(C(=O)Nc2nn[nH]n2)cc1)N1C(=O)C(c2cc(Cl)cc(Cl)c2)=NC1(C)C [Example 3] | 5.21 |
| CC(C)CC1(C)N=C(c2cc(Cl)cc(Cl)c2)C(=O)N1[C@H](CCC(C)(C)C)c1ccc(C(=O)NCc2nn[nH]n2)cc1 (some centres unmarked) [Example 4] | 5.96 |
| CC(C)CC1(C)N=C(c2cc(Cl)cc(Cl)c2)C(=O)N1[C@H](CCC(C)(C)C)c1ccc(C(=O)Nc2nn[nH]n2)cc1 (some centres unmarked) [Example 5] | 5.29 |
| CC(C)CC1(C)N=C(c2cccc(F)c2)C(=O)N1[C@H](CCC(C)(C)C)c1ccc(C(=O)NCc2nn[nH]n2)cc1 (some centres unmarked) [Example 6] | 5.47 |
| CC(C)CC1(C)N=C(c2cc(Cl)cc(Cl)c2)C(=O)N1[C@H](CCC(C)(C)C)c1ccc(C(=O)NCCC(=O)O)cc1 (some centres unmarked) [Example 7] | 6.22 |
| CC(C)(C)CC[C@H](c1ccc(C(=O)NCCC(=O)O)cc1)N1C(=O)C(c2cccc(F)c2)=NC1(C)C [Example 8] | 5.31 |
| CC(C)(C)CC[C@H](c1ccc(C(=O)Nc2nn[nH]n2)cc1)N1C(=O)C(c2cccc(F)c2)=NC1(C)C [Example 9] | 5.23 |
